The target of data set [1] is T1, Human immunodeficiency virus type 1 protease (Human immunodeficiency virus 1, UniProt Q72874). Put plainly: Binding affinity to HIV1 protease assessed as inhibition constant.
Data set [2] concerns Human immunodeficiency virus 1. Put plainly: Antiviral activity against HIV1 LAI infected in human MT2 cells assessed as inhibition of virus-induced cytopathic effect by MTT assay. Format: functional, organism-based. The note with it: Human immunodeficiency virus 1, LAI.
In data set [3] the test system is Human immunodeficiency virus 1. In words: Antiviral activity against wild type HIV1 ERS104pre infected in human PBMC cells assessed as inhibition of virus-induced cytopathic effect measured after 7 days by MTT assay. Format: functional, organism-based. As to conditions: Human immunodeficiency virus 1, ERS104pre, 168 h.
In data set [4] the test system is Human immunodeficiency virus 1. Put plainly: Antiviral activity against multidrug-resistant HIV1-TM infected in phytohemagglutinin-activated human PBMC cells assessed as inhibition of virus-induced cytopathic effect measured after 7 days by MTT assay. The data set is classed as functional, organism-based. As to conditions: Human immunodeficiency virus 1, TM, 168 h. A general note: Cytopathic effects are the visible damage that an infection or toxin causes in cultured cells.

Data set [5] concerns Human immunodeficiency virus 1. Put plainly: Antiviral activity against multidrug-resistant HIV1-MM infected in phytohemagglutinin-activated human PBMC cells assessed as inhibition of virus-induced cytopathic effect measured after 7 days by MTT assay. The data set is classed as functional, organism-based. The note with it: Human immunodeficiency virus 1, MM, 168 h.
Data set [6] deals with Human immunodeficiency virus 1. In words: Antiviral activity against multidrug-resistant HIV1-JSL infected in phytohemagglutinin-activated human PBMC cells assessed as inhibition of virus-induced cytopathic effect measured after 7 days by MTT assay. The data set is classed as functional, organism-based. As to conditions: Human immunodeficiency virus 1, JSL, 168 h.
Data set [7] deals with Human immunodeficiency virus 1. In words: Antiviral activity against multidrug-resistant HIV1-B infected in phytohemagglutinin-activated human PBMC cells assessed as inhibition of virus-induced cytopathic effect measured after 7 days by MTT assay. The data set is classed as functional, organism-based. The note with it: Human immunodeficiency virus 1, B, 168 h.
Data set [8] concerns Human immunodeficiency virus 1. Put plainly: Antiviral activity against multidrug-resistant HIV1-C infected in phytohemagglutinin-activated human PBMC cells assessed as inhibition of virus-induced cytopathic effect measured after 7 days by MTT assay. As to conditions: Human immunodeficiency virus 1, C, 168 h. Format: functional, organism-based.
Data set [9] relates to Human immunodeficiency virus 1. Put plainly: Antiviral activity against multidrug-resistant HIV1-G infected in phytohemagglutinin-activated human PBMC cells assessed as inhibition of virus-induced cytopathic effect measured after 7 days by MTT assay. As to conditions: Human immunodeficiency virus 1, G, 168 h. Format: functional, organism-based.
Data set [10] relates to Human immunodeficiency virus 1. In words: Ratio of EC50 for antiviral activity against HIV1-TM to EC50 for antiviral activity against wild type HIV1 ERS104pre. Format: functional.
The subject of data set [11] is Human immunodeficiency virus 1. In words: Ratio of EC50 for antiviral activity against HIV1-MM to EC50 for antiviral activity against wild type HIV1 ERS104pre. Format: functional.
Data set [12] relates to Human immunodeficiency virus 1. In words: Ratio of EC50 for antiviral activity against HIV1-JSL to EC50 for antiviral activity against wild type HIV1 ERS104pre. Format: functional.
Data set [13] deals with Human immunodeficiency virus 1. In words: Ratio of EC50 for antiviral activity against HIV1-B to EC50 for antiviral activity against wild type HIV1 ERS104pre. The data set is classed as functional.
Data set [14] relates to Human immunodeficiency virus 1. In words: Ratio of EC50 for antiviral activity against HIV1-C to EC50 for antiviral activity against wild type HIV1 ERS104pre. Format: functional.
Data set [15] deals with Human immunodeficiency virus 1. In words: Ratio of EC50 for antiviral activity against HIV1-G to EC50 for antiviral activity against wild type HIV1 ERS104pre. Format: functional.
Data set [16] in a line: Cytotoxicity against human MT2 cells assessed as reduction in cell viability by MTT assay. Format: toxicity, cell-based. For orientation: Tetrazolium dyes change colour on reduction, which living cells bring about.
Data set [17] can be described thus: Selectivity index, ratio of CC50 for human MT2 cells to IC50 for antiviral activity against HIV1 LAI. As to conditions: read-out: Ratio CC50/EC50. The data set is classed as toxicity.
The nature of data set [18]: Lipophilicity, logP of the compound in Octanol/water by shake-flask method. Format: physicochemical.
The nature of data set [19]: Lipophilicity, logD of the compound in Octanol/buffer by shake-flask method. Format: physicochemical.
Data set [20] in a line: Apparent permeability in rat astrocytes/rat pericytes/monkey endothelial cells triple cell co-culture system incubated for 30 mins by spectrophotometric analysis. The data set is classed as ADME, cell-based.
Data set [21] can be described thus: AUC in rat at 10 mg/kg, po. Format: ADME, organism-based. As to conditions: in vivo. Set-up: dose 10 mg/kg, route po.
Data set [22] in a line: Half life in rat at 1 mg/kg, iv. The data set is classed as ADME, organism-based. As to conditions: in vivo.
Data set [23] can be described thus: Clearance in rat at 2 mg/kg, iv. The data set is classed as ADME, organism-based. The note with it: in vivo.
A short description of data set [24]: Clearance in dog at 1 mg/kg, iv. As to conditions: in vivo. The data set is classed as ADME, organism-based, Canis lupus familiaris.
The nature of data set [25]: Half life in dog at 1 mg/kg, iv. The note with it: in vivo. Format: ADME, organism-based, Canis lupus familiaris.
Data set [26] can be described thus: AUC in dog at 4 mg/kg, po. The data set is classed as ADME, organism-based, Canis lupus familiaris. Also on record: dose 4 mg/kg, route po. The note with it: in vivo.
Data set [27] deals with Human immunodeficiency virus 1. Put plainly: Antiviral activity against HIV1 LAI infected in human MT2 cells assessed as inhibition of virus-induced cytopathic effect. As to conditions: Human immunodeficiency virus 1, LAI. Format: functional, organism-based.
For data set [28], the target named is T1, Human immunodeficiency virus type 1 protease. In words: Binding affinity to wild-type HIV1 protease expressed in Escherichia coli BL21(DE3) assessed as inhibition constant using (2-aminobenzoyl)Thr-Ile-Nle-(p-nitro)Phe-Gln-Arg peptide as substrate preincubated for 15 mins followed by substrate addition by fluorimeter analysis.
Data set [29] has as its system Human immunodeficiency virus 1. In words: Antiviral activity against wild type HIV-1 IIIB infected in human MT4 cells assessed as protection against virus-induced cytotoxicity incubated for 5 days by XTT assay. The data set is classed as functional, organism-based. The note with it: Human immunodeficiency virus 1, IIIB, MT4, 120 h.
Data set [30] concerns the target T1, Human immunodeficiency virus type 1 protease. Put plainly: Inhibition of recombinant wildtype HIV1 Protease using Abz-Thr-Ile-Nle-Phe(NO2)-Gln-Arg peptide as substrate.
Data set [31] has the same target. Put plainly: Inhibition of recombinant HIV1 Protease using His-Lys-Ala-Arg-Val-Leu-(pNO2-Phe)-Glu-Ala-Nle-SerNH2 peptide as substrate.
For data set [32] the target is unchanged. Put plainly: Inhibition of recombinant HIV1 Protease using Abz-Thr-Ile-Nle-(p-nitro)-Phe-Gln-Arg-NH2 peptide as substrate.

Regarding `CC(C)CN(C[C@@H](O)[C@H](Cc1ccccc1)NC(=O)O[C@H]1CO[C@H]2OCC(F)(F)[C@H]21)S(=O)(=O)c1ccc(N)cc1`, the Ki in data set [1] is 0.0058 nM. For the same molecule, the EC50 stood at 3 nM in [2]; 2.7 nM in data set [3]; 4 nM in data set [4]; 3 nM in data set [5]; 20 nM in data set [6]; 11 nM in data set [7]. Also, the EC50 came out at 2 nM in [8] and 4 nM in data set [9]. Also, the “Ratio EC50” value came out at 2 in data set [10]; 1 in [11]; 7 in data set [12]; 3 in data set [13]; 1 in data set [14]; 2 in [15]. The CC50 in data set [16] was 37 µM. Also, the selectivity ratio in data set [17] turned out to be 12300. Moreover, the logP in data set [18] was -0.83. In [19], the logD is -1.01. Further, in data set [20], the Papp at 0.5 h worked out at 47.8 ×10⁻⁶ cm/s.
Consider `CCCN([C@H](CO)CCC[C@@H](NC(=O)[C@@H](NC(=O)OC)C(c1ccccc1)c1ccccc1)C(F)(F)F)S(=O)(=O)c1ccc(N)cc1`, for which the exposure (AUC) amounted to 0.56 µM·h in data set [21] and 3.62 µM·h in [26]. Also, the results for the half-life in data set [22] and in data set [25] were 203 min and 312 min, respectively. Further, the results for the clearance in data set [23] and in data set [24] were 17.4 mL/min/kg and 4.7 mL/min/kg, respectively.
Consider `COc1ccc(S(=O)(=O)N(CC(C)C)C[C@@H](O)[C@H](Cc2ccccc2)NC(=O)O[C@@H]2C[C@@H]3OCO[C@@H]3C2)cc1`, for which the Ki in data set [1] was 0.11 nM. The IC50 in data set [27] turned out to be 3.8 nM.
As for `COc1ccc(S(=O)(=O)N(CC(C)C)C[C@@H](O)[C@H](Cc2ccccc2)NC(=O)O[C@H]2CO[C@H]3OCC(F)(F)[C@H]32)cc1`, the Ki in [1] stood at 0.8 nM. The EC50 in data set [2] came to 0.8 nM; in [3], 2.3 nM; in data set [4] it was 4 nM; in data set [5], 2 nM; in data set [6], 21 nM; in data set [7], 14 nM. Also, the results for the EC50 in [8] and in [9] were 2 nM and 4 nM, respectively. The “Ratio EC50” value in data set [10] worked out at 2; in [11], 1; in data set [12], 10; in data set [13] it was 7; in data set [14] it was 1; in data set [15] it was 2. In addition, in [16], the CC50 is 17.5 µM. Further, the selectivity ratio in [17] was determined as 21900. Also, in data set [18], the logP is -0.14. Also, the logD in data set [19] is -0.29. Also, in data set [20], the Papp at 0.5 h is 61.8 ×10⁻⁶ cm/s.
For `COc1ccc(S(=O)(=O)N(CC(C)C)C[C@@H](O)[C@H](Cc2ccc(OCP(=O)(O)O)cc2)NC(=O)O[C@H]2CO[C@H]3OCC[C@H]32)cc1`, in data set [28], the Ki was 0.0133 nM.
In the case of `CCOP(=O)(COc1ccc(C[C@H](NC(=O)O[C@H]2CO[C@H]3OCC[C@H]32)[C@H](O)CN(CC(C)C)S(=O)(=O)c2ccc(OC)cc2)cc1)OCC`, the Ki in data set [28] amounted to 0.0081 nM. Further, the EC50 in data set [29] came to 3.5 nM.
With `Cc1c(O)cccc1C(=O)N[C@@H](c1cccs1)[C@H](O)CN1C[C@H]2CCCC[C@H]2C[C@H]1C(=O)NC(C)(C)C`, the IC50 in data set [30] turned out to be 30 µM.
As for `CCCN([C@H](CO)CCC[C@H](C)NC(=O)[C@@H](NC(=O)OC)C(c1ccccc1)c1ccccc1)S(=O)(=O)c1ccc(N)cc1`, the figures for the AUC in data set [21] and in [26] were 1.35 µM·h and 2.48 µM·h, respectively. The half-life in data set [22] was 744 min; in data set [25], 546 min. In addition, the clearance in data set [23] was determined as 30 mL/min/kg; in [24] it was 5.3 mL/min/kg.
As for `CC(C)(C)NC(=O)[C@@H]1C[C@@H]2CCCC[C@@H]2CN1C[C@@H](O)[C@@H](NC(=O)[C@H](CC(N)=O)NC(=O)c1ccc2ccccc2n1)c1cccs1`, in data set [30], the IC50 worked out at 5 µM.
`C=C(C)[C@@H]1CC[C@@]2(C)[C@@H]1C1CC[C@@H]3[C@@](C)(CC(=O)O)[C@H](C(C)(C)C(=O)O)CC[C@@]3(C)[C@]1(C)C[C@@H]2O` (some centres not stated): the IC50 in [31] was 17.8 µM.
Consider `C=C(C)[C@H]1CC[C@]2(C)[C@H]3CC[C@@H]4[C@@]5(C)C[C@H](OC(C)=O)C[C@](C)(C(=O)O)[C@@H]5CC[C@@]4(C)[C@]3(C)CC[C@@H]12`, for which the IC50 in data set [31] is 1.7 µM.
Consider `Cc1cccc(C)c1OCC(=O)N(Cc1ccccc1)C[C@@H]1CNC[C@H]1CN(CC(C)C)S(=O)(=O)c1ccccc1`, for which, in data set [32], the IC50 turned out to be 2200 nM.

Usually Ki stands for a dissociation constant, usually derived from enzyme kinetics or from competition with a known ligand. A word on the EC50: it is the midpoint of the concentration-response curve. As usually defined, the CC50 is the concentration at which the toxic effect on the cells reaches its halfway point. As usually defined, the logP is a log measure of how a compound divides between an organic and an aqueous phase. As a reminder, the logD is the decadic logarithm of the distribution of all forms, ionised or not, between an organic phase and buffer at a given pH. A word on the Papp: it is a coefficient for how fast a substance crosses the barrier. Broadly, the AUC is the area under the concentration-time curve, a measure of exposure. A word on the half-life: it is how long it takes for the measured level to halve. The term clearance denotes the volume of plasma or blood freed of the substance per unit of time. Broadly, the IC50 is the concentration needed to halve the response being measured.

The values above are taken from ChEMBL document CHEMBL5252512, “Recent Progress in the Development of HIV-1 Protease Inhibitors for the Treatment of HIV/AIDS” (J Med Chem, 2016).
